Read-outs that look alike come from different tables or passages of the source.
How the values were obtained:
Assay type in all cases: cell-based
[1] = system: PANC-1 pancreatic cancer cells; test: Panobinostat (HDAC inhibitor) sensitization, cytotoxicity in PANC-1 pancreatic cancer cells; conditions: PANC-1 cells; for EC50: Homo sapiens; for increase in panobinostat sensitivity (fold): 1 μM compound vs DMSO
Description: Reference is made to FIG. 3. (A) In PANC-1 pancreatic cancer cells, the cytotoxicity of each of the indicated HDAC inhibitors was evaluated in the presence and absence of 1 μM E64FC26. EC50 values are shown. (B) Similar experiments as described in (A) were conducted using T98G glioblastoma cells. EC50 values for each of the HDAC inhibitor in the presence and absence of 1 μM E64FC26. (C) Panels of the indicated tumor cell types were treated with a dose range of the HDAC inhibitor panobinostat in the presence and absence of 1 μM E64FC26. EC50 values were extrapolated and the relative effect of E64FC26 on panobinostat sensitivity was calculated. Each data point indicated the fold change in panobinostat EC50 for that particular cell line. (D) An example of full panobinostat dose response curves in PANC-1 pancreatic cancer cells are shown. PANC-1 cells were co-treated with DMSO vehicle control, 1 μM E64FC26, or 1 μM E64FC65.

MM.1S BzR cells = test: Bortezomib sensitization, cell viability in PI-resistant MM.1S BzR cells; conditions: for EC50: Homo sapiens, MM1.S, cell viability after 24 hours
Description: (§1) Reference is made to FIG. 1. (A) The structures of novel derivatives E64FC26 and E64FC65 are shown. (B) Proteasome inhibitor (PI) resistant MM.1S BzR cells were treated with the E64FC26 at a concentration of 500 nM and a dose range of the PI bortezomib (Btz). Cell viability was measured after 24 hours of treatment. […] (C) PANC-1 pancreatic cancer cells were treated with the indicated derivative at a final concentration of 1 μM and a dose range of Btz. Cell viability was measured after a 48 hour treatment time. […] (D) Panels of pancreatic, ovarian, glioma, multiple myeloma, and normal cells were treated with E64FC26 and a dose range of the second generation proteasome inhibitor carfilzomib (Crflz) using a protocol similar to that described above for panels (B) and (C). Crflz EC50 values were extrapolated from dose curves conducted in the presence and absence of E64FC26 and a fold-change was calculated. Each data point represents the fold-change, or the degree of Crflz potentiation, for each cell line tested.

[2] = system: PANC-1 pancreatic cancer cells; test: Bortezomib sensitization, cell viability in PANC-1 pancreatic cancer cells; conditions: PANC-1 cells; for EC50: Homo sapiens, cell viability after 48 hour treatment; for fold increase in Btz sensitivity: compound at 1 μM vs DMSO, 48 hour
Description: as §1

[3] = co-treated with 1 μM compound, read-out: panobinostat EC50 in the presence of the compound
[4] = compound at 1 μM, read-out: Btz EC50 in the presence of the compound

| SMILES | EC50 ([1]; panobinostat alone (DMSO vehicle), read-out: panobinostat EC50 in DMSO treated cells) | EC50 (MM.1S BzR cells; Btz alone (DMSO vehicle), read-out: Btz EC50, control cells treated with DMSO vehicle) | EC50 ([2]; Btz alone (DMSO vehicle), read-out: Btz EC50 in the presence of DMSO vehicle control) | fold increase in Btz sensitivity (MM.1S BzR cells; 500 nM compound vs DMSO, 24 hours) | EC50 (MM.1S BzR cells; co-treatment with 500 nM compound, read-out: Btz EC50 in cells co-treated with the compound) | EC50 [1, 3] | increase in panobinostat sensitivity (fold) [1] | EC50 [2, 4] | fold increase in Btz sensitivity [2] |
| --- | --- | --- | --- | --- | --- | --- | --- | --- | --- |
| Cc1[nH]c2ccccc2c1CCNCc1ccc(/C=C/C(=O)NO)cc1 [panobinostat, reference compound] | 453 nM | – | – | – | – | – | – | – | – |
| CC(C)C[C@H](NC(=O)[C@H](Cc1ccccc1)NC(=O)c1cnccn1)B(O)O [Btz, bortezomib, reference compound] | – | 45.5 nM | 83.5 nM | – | – | – | – | – | – |
| CCCCCCCC/C=C1\C=C(C(F)(F)F)c2cc(O)c(O)cc21 [E64FC26] | – | – | – | 9.7 fold | 4.7 nM | 5.3 nM | 85.5 fold | 9.1 nM | 9.2 fold |
| CCCCCC/C=C1\C=C(C(F)(F)F)c2cc3c(cc21)OCO3 [E64FC65, (5E)-7-(trifluoromethyl)-5-heptylidene-5H-indeno[5,6-d][1,3]dioxole] | – | – | – | – | – | 1.1 nM | 412 fold | 1.8 nM | 46.4 fold |

— patent US10329269B2, “Indene derivatives and uses thereof” (MUSC FOUNDATION FOR RESEARCH DEVELOPMENT, priority 2017, dated 2019)
